Legend:
[1] = target: B1 bradykinin receptor (Homo sapiens) (UniProt P46663); experiment: B1/H Eurofins SafetyScreen44 (BI); conditions: Compound concentration 10.0 uM
[2] = target: Melatonin receptor type 1A (Homo sapiens) (UniProt P48039); experiment: MT1/H Eurofins SafetyScreen44 (BI); conditions: Compound concentration 10.0 uM
[3] = target: Endothelin receptor type B (Homo sapiens) (UniProt P24530); experiment: ETB/HUM Eurofins SafetyScreen44 (BI); conditions: Compound concentration 10.0 uM
[4] = target: T1, Alpha-2C adrenergic receptor (Homo sapiens) (UniProt P18825); experiment: ALPHA2C/H Eurofins SafetyScreen44 (BI)
T1 sequence (whole entry): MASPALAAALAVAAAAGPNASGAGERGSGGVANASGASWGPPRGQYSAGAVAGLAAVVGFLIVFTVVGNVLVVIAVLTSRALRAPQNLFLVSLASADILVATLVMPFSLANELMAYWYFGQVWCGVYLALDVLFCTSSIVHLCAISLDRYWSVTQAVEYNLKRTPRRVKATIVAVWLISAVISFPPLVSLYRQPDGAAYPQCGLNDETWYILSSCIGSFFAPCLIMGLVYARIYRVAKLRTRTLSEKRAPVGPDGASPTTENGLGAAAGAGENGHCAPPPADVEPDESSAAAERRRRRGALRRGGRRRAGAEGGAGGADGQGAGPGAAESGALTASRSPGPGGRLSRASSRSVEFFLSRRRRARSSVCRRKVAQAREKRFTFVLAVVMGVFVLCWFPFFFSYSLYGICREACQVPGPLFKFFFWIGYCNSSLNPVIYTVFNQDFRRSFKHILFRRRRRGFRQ

[5] = target: Sodium- and chloride-dependent GABA transporter 1 (Rattus norvegicus) (UniProt P23978); experiment: GABATRANS/RA Eurofins SafetyScreen44 (BI); conditions: Compound concentration 10.0 uM
[6] = target: Adenosine receptor A1 (Homo sapiens) (UniProt P30542); experiment: A1/HU Eurofins SafetyScreen44 (BI); conditions: Compound concentration 10.0 uM
[7] = target: Sigma non-opioid intracellular receptor 1 (Homo sapiens) (UniProt Q99720); experiment: SIGMA1/HU Eurofins SafetyScreen44 (BI); conditions: Compound concentration 10.0 uM
[8] = target: 5-hydroxytryptamine receptor 2B (Homo sapiens) (UniProt P41595); conditions: Compound concentration 10.0 uM
[9] = target: Beta-2 adrenergic receptor (Homo sapiens) (UniProt P07550); experiment: BETA2/HU Eurofins SafetyScreen44 (BI); conditions: Compound concentration 10.0 uM
[10] = target: Neuropeptide Y receptor type 1 (Homo sapiens) (UniProt P25929); experiment: Y1/HU Eurofins SafetyScreen44 (BI); conditions: Compound concentration 10.0 uM
[11] = target: Estrogen receptor (Homo sapiens) (UniProt P03372); experiment: ERALPHA/H Eurofins SafetyScreen44 (BI); conditions: Compound concentration 10.0 uM
[12] = target: Prostaglandin E2 receptor EP4 subtype (Homo sapiens) (UniProt P35408); experiment: PEP4_HU Eurofins SafetyScreen44 (BI)
[13] = target: Beta-1 adrenergic receptor (Homo sapiens) (UniProt P08588); experiment: BETA1/HU Eurofins SafetyScreen44 (BI); conditions: Compound concentration 10.0 uM
[14] = target: B2 bradykinin receptor (Homo sapiens) (UniProt P30411); experiment: B2/H Eurofins SafetyScreen44 (BI); conditions: filed as antagonist, Compound concentration 10.0 uM
[15] = target: Glutamate receptor ionotropic, NMDA 2A (Rattus norvegicus) (UniProt Q00959); experiment: NMDAPHSI/R Eurofins SafetyScreen44 (BI); conditions: Compound concentration 10.0 uM
[16] = target: Gamma-aminobutyric acid receptor subunit alpha-1 (Rattus norvegicus) (UniProt P62813); experiment: GABAA MUSCIMOL CENT Eurofins SafetyScreen44 (BI); conditions: Compound concentration 10.0 uM
[17] = target: Sodium-dependent noradrenaline transporter (Homo sapiens) (UniProt P23975); experiment: NETRANS/H Eurofins SafetyScreen44 (BI); conditions: Compound concentration 10.0 uM
[18] = target: Glutamate receptor ionotropic, kainate 1 (Rattus norvegicus) (UniProt P22756); experiment: KAINATE/R Eurofins SafetyScreen44 (BI); conditions: Compound concentration 10.0 uM
[19] = target: Neuropeptide Y receptor type 2 (Homo sapiens) (UniProt P49146); experiment: Y2/HU Eurofins SafetyScreen44 (BI); conditions: Compound concentration 10.0 uM
[20] = target: D(1A) dopamine receptor (Homo sapiens) (UniProt P21728); experiment: D1/HU Eurofins SafetyScreen44 (BI); conditions: Compound concentration 10.0 uM
[21] = target: T2, Thyroid hormone receptor alpha (Rattus norvegicus) (UniProt P63059); experiment: THYROID HORM Eurofins SafetyScreen44 (BI)
T2 sequence (whole entry): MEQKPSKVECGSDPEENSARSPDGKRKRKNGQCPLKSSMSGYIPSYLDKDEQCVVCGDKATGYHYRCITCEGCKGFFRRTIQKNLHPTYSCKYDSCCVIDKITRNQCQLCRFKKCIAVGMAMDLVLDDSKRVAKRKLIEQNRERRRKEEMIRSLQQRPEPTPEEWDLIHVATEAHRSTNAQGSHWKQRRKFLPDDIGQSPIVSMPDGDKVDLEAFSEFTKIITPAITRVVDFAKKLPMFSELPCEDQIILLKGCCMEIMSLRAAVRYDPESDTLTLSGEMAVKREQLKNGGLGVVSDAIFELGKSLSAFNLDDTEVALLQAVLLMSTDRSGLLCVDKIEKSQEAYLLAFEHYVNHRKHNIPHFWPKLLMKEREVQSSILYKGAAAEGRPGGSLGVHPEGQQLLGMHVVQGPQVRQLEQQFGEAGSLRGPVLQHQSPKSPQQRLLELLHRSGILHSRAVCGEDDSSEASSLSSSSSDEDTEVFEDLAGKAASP

[22] = target: 3',5'-cyclic-AMP phosphodiesterase 4D (Homo sapiens) (UniProt Q08499); experiment: PDE4D2 Eurofins SafetyScreen44 (BI); conditions: Compound concentration 10.0 uM
[23] = target: T3, 5-hydroxytryptamine receptor 3A (Homo sapiens) (UniProt P46098); experiment: 5HT3/H Eurofins SafetyScreen44 (BI); conditions: Compound concentration 10.0 uM
T3 sequence (whole entry): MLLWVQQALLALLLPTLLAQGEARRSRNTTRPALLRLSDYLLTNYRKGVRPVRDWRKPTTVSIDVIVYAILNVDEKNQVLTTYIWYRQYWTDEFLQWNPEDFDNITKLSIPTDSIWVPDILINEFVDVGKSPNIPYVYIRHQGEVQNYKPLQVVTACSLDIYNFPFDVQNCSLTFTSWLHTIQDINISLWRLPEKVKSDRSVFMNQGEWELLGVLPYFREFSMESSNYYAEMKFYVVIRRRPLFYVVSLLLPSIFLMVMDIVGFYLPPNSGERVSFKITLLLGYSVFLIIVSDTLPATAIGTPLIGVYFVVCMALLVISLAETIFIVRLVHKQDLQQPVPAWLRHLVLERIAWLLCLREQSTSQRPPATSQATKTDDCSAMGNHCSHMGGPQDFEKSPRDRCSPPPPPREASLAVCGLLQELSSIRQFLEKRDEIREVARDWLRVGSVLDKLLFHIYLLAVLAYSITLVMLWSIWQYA

Prostaglandin E2 receptor EP4 subtype (Homo sapiens), sequence (P35408 whole entry): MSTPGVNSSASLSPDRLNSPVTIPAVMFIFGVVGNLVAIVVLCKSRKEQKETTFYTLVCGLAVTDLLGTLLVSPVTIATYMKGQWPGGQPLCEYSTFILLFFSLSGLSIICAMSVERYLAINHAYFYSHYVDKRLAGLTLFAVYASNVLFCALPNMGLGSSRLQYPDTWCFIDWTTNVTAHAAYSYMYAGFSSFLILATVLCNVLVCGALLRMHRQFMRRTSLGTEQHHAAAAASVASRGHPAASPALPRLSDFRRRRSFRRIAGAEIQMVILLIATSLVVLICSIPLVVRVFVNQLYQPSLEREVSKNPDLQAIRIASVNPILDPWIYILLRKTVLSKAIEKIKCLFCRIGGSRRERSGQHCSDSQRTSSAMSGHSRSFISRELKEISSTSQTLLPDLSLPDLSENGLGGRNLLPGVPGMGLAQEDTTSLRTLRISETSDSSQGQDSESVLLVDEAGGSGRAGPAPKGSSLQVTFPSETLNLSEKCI
5-hydroxytryptamine receptor 2B (Homo sapiens), sequence (P41595 whole entry): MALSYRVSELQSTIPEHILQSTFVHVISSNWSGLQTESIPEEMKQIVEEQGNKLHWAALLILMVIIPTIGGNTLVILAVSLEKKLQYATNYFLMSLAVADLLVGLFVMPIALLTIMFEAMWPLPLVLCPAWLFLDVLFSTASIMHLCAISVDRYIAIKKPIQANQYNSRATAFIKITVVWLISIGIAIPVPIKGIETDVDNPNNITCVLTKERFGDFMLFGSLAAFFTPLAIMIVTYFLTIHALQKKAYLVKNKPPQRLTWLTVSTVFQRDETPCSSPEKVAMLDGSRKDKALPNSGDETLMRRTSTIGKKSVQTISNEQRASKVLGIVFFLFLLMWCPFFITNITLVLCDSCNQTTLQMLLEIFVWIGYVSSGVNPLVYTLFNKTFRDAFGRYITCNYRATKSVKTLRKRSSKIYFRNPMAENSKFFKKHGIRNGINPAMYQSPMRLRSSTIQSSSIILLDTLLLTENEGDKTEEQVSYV
B1 bradykinin receptor (Homo sapiens), sequence (P46663 whole entry): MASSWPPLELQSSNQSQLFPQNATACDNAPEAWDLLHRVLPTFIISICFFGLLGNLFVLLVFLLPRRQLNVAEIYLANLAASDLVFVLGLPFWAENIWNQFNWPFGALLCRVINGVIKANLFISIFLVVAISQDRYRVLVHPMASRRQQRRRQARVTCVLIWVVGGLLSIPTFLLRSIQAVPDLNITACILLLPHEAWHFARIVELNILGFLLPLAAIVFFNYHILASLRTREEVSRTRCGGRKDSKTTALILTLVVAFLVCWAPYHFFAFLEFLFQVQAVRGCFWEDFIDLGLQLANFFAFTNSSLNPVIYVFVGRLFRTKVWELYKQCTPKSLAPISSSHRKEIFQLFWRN
D(1A) dopamine receptor (Homo sapiens), sequence (P21728 whole entry): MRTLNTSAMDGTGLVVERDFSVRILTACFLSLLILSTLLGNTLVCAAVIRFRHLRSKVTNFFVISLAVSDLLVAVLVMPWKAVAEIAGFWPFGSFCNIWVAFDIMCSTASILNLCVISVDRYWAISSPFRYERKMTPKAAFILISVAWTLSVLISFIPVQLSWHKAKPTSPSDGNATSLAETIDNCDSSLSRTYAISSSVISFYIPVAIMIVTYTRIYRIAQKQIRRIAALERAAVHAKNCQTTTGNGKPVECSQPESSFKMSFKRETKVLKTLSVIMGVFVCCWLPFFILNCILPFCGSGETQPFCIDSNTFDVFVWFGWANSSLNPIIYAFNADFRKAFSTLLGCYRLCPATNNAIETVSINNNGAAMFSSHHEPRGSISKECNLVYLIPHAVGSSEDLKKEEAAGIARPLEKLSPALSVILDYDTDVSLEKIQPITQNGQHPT
B2 bradykinin receptor (Homo sapiens), sequence (P30411 whole entry): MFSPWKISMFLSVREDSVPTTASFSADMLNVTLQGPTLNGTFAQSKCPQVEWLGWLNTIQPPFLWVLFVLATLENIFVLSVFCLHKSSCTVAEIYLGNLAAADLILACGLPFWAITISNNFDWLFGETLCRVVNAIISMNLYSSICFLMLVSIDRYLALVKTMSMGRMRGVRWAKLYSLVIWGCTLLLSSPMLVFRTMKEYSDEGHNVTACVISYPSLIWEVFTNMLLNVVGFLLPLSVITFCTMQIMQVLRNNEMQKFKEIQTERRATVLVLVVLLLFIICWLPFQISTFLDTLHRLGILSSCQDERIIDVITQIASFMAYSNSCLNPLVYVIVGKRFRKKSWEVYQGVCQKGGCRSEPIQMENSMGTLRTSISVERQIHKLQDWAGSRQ
3',5'-cyclic-AMP phosphodiesterase 4D (Homo sapiens), sequence (Q08499 whole entry): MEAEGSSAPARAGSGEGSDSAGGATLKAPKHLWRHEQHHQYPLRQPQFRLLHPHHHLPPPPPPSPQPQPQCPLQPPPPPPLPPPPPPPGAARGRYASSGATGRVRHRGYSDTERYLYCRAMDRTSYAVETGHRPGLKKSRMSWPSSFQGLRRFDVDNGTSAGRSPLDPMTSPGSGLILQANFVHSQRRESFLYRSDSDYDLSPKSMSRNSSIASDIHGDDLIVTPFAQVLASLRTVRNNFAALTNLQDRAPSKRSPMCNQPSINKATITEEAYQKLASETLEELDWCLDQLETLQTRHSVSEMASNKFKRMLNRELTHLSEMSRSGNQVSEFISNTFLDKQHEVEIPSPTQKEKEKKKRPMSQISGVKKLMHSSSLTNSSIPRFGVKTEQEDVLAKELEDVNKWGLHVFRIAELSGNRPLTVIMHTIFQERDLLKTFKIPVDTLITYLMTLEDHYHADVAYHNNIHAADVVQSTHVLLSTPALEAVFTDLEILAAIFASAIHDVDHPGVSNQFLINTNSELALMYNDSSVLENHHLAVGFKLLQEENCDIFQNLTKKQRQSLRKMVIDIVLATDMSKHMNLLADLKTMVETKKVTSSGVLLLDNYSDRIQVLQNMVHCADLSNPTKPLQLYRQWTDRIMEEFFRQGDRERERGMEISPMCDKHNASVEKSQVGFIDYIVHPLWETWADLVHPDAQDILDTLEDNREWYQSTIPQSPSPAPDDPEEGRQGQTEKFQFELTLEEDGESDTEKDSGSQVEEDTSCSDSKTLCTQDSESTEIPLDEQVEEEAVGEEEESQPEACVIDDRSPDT
Neuropeptide Y receptor type 1 (Homo sapiens), sequence (P25929 whole entry): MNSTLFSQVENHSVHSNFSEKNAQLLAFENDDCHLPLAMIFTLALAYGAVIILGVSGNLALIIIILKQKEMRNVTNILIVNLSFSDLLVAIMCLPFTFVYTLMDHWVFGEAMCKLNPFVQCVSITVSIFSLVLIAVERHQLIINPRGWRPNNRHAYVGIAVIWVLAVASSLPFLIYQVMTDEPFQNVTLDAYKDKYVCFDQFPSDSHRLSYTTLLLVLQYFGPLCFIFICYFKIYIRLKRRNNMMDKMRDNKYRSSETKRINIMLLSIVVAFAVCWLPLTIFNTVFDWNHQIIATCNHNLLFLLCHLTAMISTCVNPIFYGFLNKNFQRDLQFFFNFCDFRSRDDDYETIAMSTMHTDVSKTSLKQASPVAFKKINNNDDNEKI
Endothelin receptor type B (Homo sapiens), sequence (P24530 whole entry): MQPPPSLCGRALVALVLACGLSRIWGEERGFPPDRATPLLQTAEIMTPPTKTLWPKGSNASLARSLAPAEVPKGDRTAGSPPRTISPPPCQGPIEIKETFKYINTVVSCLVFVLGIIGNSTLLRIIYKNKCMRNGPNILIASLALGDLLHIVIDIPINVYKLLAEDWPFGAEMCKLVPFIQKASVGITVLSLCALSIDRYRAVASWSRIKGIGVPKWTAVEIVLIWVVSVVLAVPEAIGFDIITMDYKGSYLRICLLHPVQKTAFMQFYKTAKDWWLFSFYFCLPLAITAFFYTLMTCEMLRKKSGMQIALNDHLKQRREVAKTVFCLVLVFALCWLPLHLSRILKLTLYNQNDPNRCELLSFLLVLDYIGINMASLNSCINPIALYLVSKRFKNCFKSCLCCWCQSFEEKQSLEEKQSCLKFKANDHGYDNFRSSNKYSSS
Gamma-aminobutyric acid receptor subunit alpha-1 (Rattus norvegicus), sequence (P62813 whole entry): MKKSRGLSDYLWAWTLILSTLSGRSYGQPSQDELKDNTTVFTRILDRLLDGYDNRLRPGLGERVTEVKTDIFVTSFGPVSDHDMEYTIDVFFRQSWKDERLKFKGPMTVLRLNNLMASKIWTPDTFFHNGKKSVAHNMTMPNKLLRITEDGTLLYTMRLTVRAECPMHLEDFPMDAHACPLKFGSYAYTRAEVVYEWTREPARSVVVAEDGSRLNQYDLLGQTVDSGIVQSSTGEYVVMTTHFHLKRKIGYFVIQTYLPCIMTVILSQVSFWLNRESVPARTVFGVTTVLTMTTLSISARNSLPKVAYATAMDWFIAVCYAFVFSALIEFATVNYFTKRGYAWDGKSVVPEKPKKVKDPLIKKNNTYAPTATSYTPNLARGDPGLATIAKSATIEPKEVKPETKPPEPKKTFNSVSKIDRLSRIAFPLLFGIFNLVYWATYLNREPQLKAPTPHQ
Adenosine receptor A1 (Homo sapiens), sequence (P30542 whole entry): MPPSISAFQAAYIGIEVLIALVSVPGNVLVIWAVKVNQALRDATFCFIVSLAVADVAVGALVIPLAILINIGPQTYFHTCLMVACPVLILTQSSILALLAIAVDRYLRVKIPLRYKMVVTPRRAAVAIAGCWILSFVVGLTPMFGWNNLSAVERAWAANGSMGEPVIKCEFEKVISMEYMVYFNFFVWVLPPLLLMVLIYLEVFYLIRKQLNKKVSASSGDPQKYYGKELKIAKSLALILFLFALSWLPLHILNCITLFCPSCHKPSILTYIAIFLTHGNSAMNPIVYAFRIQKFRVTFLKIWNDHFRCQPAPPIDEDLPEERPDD
Neuropeptide Y receptor type 2 (Homo sapiens), sequence (P49146 whole entry): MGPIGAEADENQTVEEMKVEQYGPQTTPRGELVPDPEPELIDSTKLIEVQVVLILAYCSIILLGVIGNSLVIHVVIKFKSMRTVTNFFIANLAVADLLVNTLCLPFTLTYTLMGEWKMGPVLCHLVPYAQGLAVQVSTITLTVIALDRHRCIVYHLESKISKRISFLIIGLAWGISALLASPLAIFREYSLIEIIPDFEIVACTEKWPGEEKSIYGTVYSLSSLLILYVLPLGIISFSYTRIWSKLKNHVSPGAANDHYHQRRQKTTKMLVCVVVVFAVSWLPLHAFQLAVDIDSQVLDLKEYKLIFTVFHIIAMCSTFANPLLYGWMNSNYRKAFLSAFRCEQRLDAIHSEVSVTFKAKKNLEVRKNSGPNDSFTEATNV

Cc1cc(OCCC(C)(C)O)cc(C)c1-c1ccc(F)c2c1CC[C@H]2Oc1ccc2c(c1)OC[C@H]2CC(=O)O
residual activity [1]: 91% | residual activity [2]: 98% | residual activity [3]: 63% | residual activity ([4]; Compound concentration 0.1 uM): 93% | residual activity ([4]; Compound concentration 0.3 uM): 100% | residual activity ([4]; Compound concentration 1.0 uM): 95% | residual activity ([4]; Compound concentration 3.0 uM): 82% | residual activity ([4]; Compound concentration 10.0 uM): 23% | residual activity ([4]; Compound concentration 30.0 uM): 1% | residual activity [5]: 88% | residual activity [6]: 68% | residual activity [7]: 91% | inhibition [8]: 3.41% | residual activity [9]: 109% | residual activity [10]: 108% | residual activity [11]: 103% | residual activity ([12]; Compound concentration 0.3 uM): 102% | residual activity ([12]; Compound concentration 1.0 uM): 108% | residual activity ([12]; Compound concentration 3.0 uM): 92% | residual activity ([12]; Compound concentration 10.0 uM): 55% | residual activity ([12]; Compound concentration 30.0 uM): 11% | residual activity [13]: 98% | residual activity [14]: 103% | residual activity [15]: 103% | residual activity [16]: 87% | residual activity [17]: 68% | residual activity [18]: 117% | residual activity [19]: 99% | residual activity [20]: 81% | residual activity ([21]; Compound concentration 0.3 uM): 97% | residual activity ([21]; Compound concentration 1.0 uM): 95% | residual activity ([21]; Compound concentration 3.0 uM): 77% | residual activity ([21]; Compound concentration 10.0 uM): 39.5% | residual activity ([21]; Compound concentration 30.0 uM): 2%

COCCCS(=O)(=O)c1cc(C)c(-c2ccc(F)c3c2CC[C@H]3Oc2ccc3c(c2)OC[C@H]3CC(=O)O)c(C)c1
residual activity [22]: 103% | residual activity [23]: 106%

Reference: ChEMBL document CHEMBL5058643, “Data for DCP probe BI-2081” (2022)
